Test results published in patent US9302999B2, “Substituted triazoles as herbicides” (E. I. DU PONT DE NEMOURS AND COMPANY, priority 2012, dated 2016).

Tests used:
Assay type in all cases: in vivo
[1] = test system: buckwheat, wild (wild buckwheat, Polygonum convolvulus); experiment: Test D pre-/postemergence: buckwheat, wild
Text: (§1) Seeds of plant species selected from bluegrass (annual bluegrass, Poa annua), blackgrass (Alopecurus myosuroides), canarygrass (Phalaris minor), chickweed (common chickweed, Stellaria media), galium (catchweed bedstraw, Galium aparine), bromegrass, downy (downy bromegrass, Bromus tectorum), field poppy (Papaver rhoeas), field violet (Viola arvensis), foxtail, green (green foxtail, Setaria viridis), deadnettle (henbit deadnettle, Lamium amplexicaule), ryegrass, Italian (Italian ryegrass, Lolium multiflorum), kochia (Kochia scoparia), lambsquarters (Chenopodium album), oilseed rape (Brassica napus), pigweed (Amaranthus retroflexus), Russian thistle (Salsola iberica), chamomile (scentless chamomile, Matricaria inodora), speedwell (bird's-eye speedwell, Veronica persica), barley, spring (spring barley, Hordeum vulgare), wheat, spring (spring wheat, Triticum aestivum), buckwheat, wild (wild buckwheat, Polygonum convolvulus), mustard, wild (wild mustard, Sinapis arvensis), oat, wild (wild oat, Avena fatua), radish, wild (wild radish, Raphanus raphanistrum), windgrass (Apera spica-venti), barley, winter (winter barley, Hordeum vulgare), and wheat, winter (winter wheat, Triticum aestivum) were planted into a silt loam soil and treated preemergence with test chemicals formulated in a non-phytotoxic solvent mixture which included a surfactant. At the same time, these same crop and weed species were planted in pots containing the planting medium comprising spaghnum peat moss, vermiculite, wetting agent and starter nutrients and treated with postemergence applications of the test chemicals formulated in the same manner. Plants ranged in height from 2 to 18 cm (1- to 4-leaf stage).
(§2) Treated plants and controls were maintained in a controlled growth environment for 14 to 21 days after which time all species were compared to controls and visually evaluated. Plant response ratings, summarized in Table D, are based on a scale of 0 to 100 where 0 is no effect and 100 is complete control. A dash (-) response means no test result.

[2] = test system: woolly cupgrass (Eriochloa villosa); experiment: Test C pre-/postemergence: woolly cupgrass
Text: (§3) Seeds of plant species selected from blackgrass (Alopecurus myosuroides), bromegrass, downy (downy bromegrass, Bromus tectorum), foxtail, green (green foxtail, Setaria viridis), ryegrass, Italian (Italian ryegrass, Lolium multiflorum), winter wheat (Triticum aestivum), wild oat (Avena fatua), galium (catchweed bedstraw, Galium aparine), bermudagrass (Cynodon dactylon), surinam grass (Brachiaria decumbens), cocklebur (common cocklebur, Xanthium strumarium), corn (Zea mays), large crabgrass (Digitaria sanguinalis), woolly cupgrass (Eriochloa villosa), foxtail, giant (giant foxtail, Setaria faberii), goosegrass (Eleusine indica), johnsongrass (Sorghum halepense), kochia (Kochia scoparia), lambsquarters (Chenopodium album), morningglory (Ipomoea coccinea), nightshade (eastern black nightshade, Solanum ptycanthum), nutsedge, yellow (yellow nutsedge, Cyperus esculentus), pigweed (Amaranthus retroflexus), ragweed (common ragweed, Ambrosia elation), soybean (Glycine max), common (oilseed) sunflower (Helianthus annuus), Russian thistle (Salsola kali) and velvetleaf (Abutilon theophrasti) were planted into a blend of loam soil and sand and treated preemergence with test chemicals formulated in a non-phytotoxic solvent mixture which included a surfactant.
(§4) At the same time, plants selected from these crop and weed species and also barley (winter barley, Hordeum vulgare), canarygrass (Phalaris minor), chickweed (common chickweed, Stellaria media) windgrass (Apera spica-venti) and deadnettle (henbit deadnettle, Lamium amplexicaule) were planted in pots containing Redi-Earth® planting medium (Scotts Company, 14111 Scottslawn Road, Marysville, Ohio 43041) comprising spaghnum peat moss, vermiculite, wetting agent and starter nutrients and treated with postemergence applications of test chemicals formulated in the same manner. Plants ranged in height from 2 to 18 cm (1- to 4-leaf stage) for postemergence treatments.
as §2, with “greenhouse” for “controlled growth environment”, “13” for “14”, “15 days,” for “21 days”, “C,” for “D,”

[3] = test system: Russian thistle (Salsola iberica); experiment: Test D pre-/postemergence: Russian thistle
Text: as §1, §2

[4] = test system: bermudagrass (Cynodon dactylon); experiment: Test C pre-/postemergence: bermudagrass
Summary of the method: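 Preemergence on seeds in loam/sand, postemergence on 2–18 cm (1–4-leaf) plants in peat-based medium; compounds in non-phytotoxic solvent with surfactant. After 13–15 days in greenhouse, visual rating versus controls, 0 (no effect) to 100 (complete control).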

[5] = test system: surinam grass (Brachiaria decumbens); experiment: Test C pre-/postemergence: surinam grass
Text: as §3, §4
as §2, with “greenhouse” for “controlled growth environment”, “13” for “14”, “15 days,” for “21 days”, “C,” for “D,”

[6] = test system: chamomile (scentless chamomile, Matricaria inodora); experiment: Test D pre-/postemergence: chamomile
Text: as §1, §2

[7] = Postemergence, 31 g ai/ha, scale 0 to 100 (0 no effect, 100 complete control)
[8] = Postemergence, 62 g ai/ha, scale 0 to 100 (0 no effect, 100 complete control)
[9] = Postemergence, 125 g ai/ha, scale 0 to 100, 0 no effect, 100 complete control
[10] = Postemergence, 16 g ai/ha, scale 0 to 100
[11] = Preemergence, 16 g ai/ha, scale 0 to 100 (0 no effect, 100 complete control)
[12] = Preemergence, 31 g ai/ha, scale 0 to 100 (0 no effect, 100 complete control)
[13] = Preemergence, 62 g ai/ha, scale 0 to 100
[14] = Preemergence, 125 g ai/ha, scale 0 to 100
[15] = Preemergence, 31 g ai/ha, scale of 0 to 100, 0 is no effect, 100 is complete control
[16] = Preemergence, 62 g ai/ha, scale of 0 to 100, 0 is no effect, 100 is complete control
[17] = Preemergence, 125 g ai/ha, scale 0 to 100, 0 no effect, 100 complete control
[18] = Preemergence, 250 g ai/ha, scale 0 to 100, 0 no effect, 100 complete control
[19] = Postemergence, 250 g ai/ha, scale 0 to 100 (0 no effect, 100 complete control)
[20] = Preemergence, 250 g ai/ha, scale 0 to 100
[21] = Postemergence, 250 g ai/ha, scale 0 to 100
[22] = Preemergence, 31 g ai/ha, scale 0 (no effect) to 100 (complete control)

SMILES: Cc1nn(-c2ccc(F)c(C(F)(F)F)c2)nc1Oc1ccnc(C(F)(F)F)c1 [Compound 147]
- Plant response rating: Buckwheat, Wild [1, 7]: 50
- Plant response rating: Buckwheat, Wild [1, 8]: 65
- Plant response rating: Buckwheat, Wild [1, 9]: 70
- Plant response rating, Buckwheat, Wild [1, 10]: 45
- Plant response rating, Buckwheat, Wild [1, 11]: 15
- Plant response rating, Buckwheat, Wild [1, 12]: 10
- Plant response rating, Buckwheat, Wild [1, 13]: 30
- Plant response rating, Buckwheat, Wild [1, 14]: 100
- Plant response rating, Cupgrass, Woolly [2, 15]: 50
- Plant response rating, Cupgrass, Woolly [2, 16]: 55
- Plant response rating, Cupgrass, Woolly [2, 17]: 95
- Plant response rating, Cupgrass, Woolly [2, 18]: 98
- Plant response rating: Russian Thistle [3, 7]: 85
- Plant response rating: Russian Thistle [3, 8]: 80
- Plant response rating: Russian Thistle [3, 9]: 80
- Plant response rating, Russian Thistle [3, 10]: 45
- Plant response rating, Bermudagrass [4, 15]: 100
- Plant response rating, Bermudagrass [4, 16]: 100
- Plant response rating, Bermudagrass [4, 17]: 100
- Plant response rating, Bermudagrass [4, 18]: 100
- Plant response rating, Surinam Grass [5, 15]: 55
- Plant response rating, Surinam Grass [5, 16]: 80
- Plant response rating, Surinam Grass [5, 17]: 95
- Plant response rating, Surinam Grass [5, 18]: 95
- Plant response rating: Chamomile [6, 7]: 60
- Plant response rating: Chamomile [6, 8]: 75
- Plant response rating: Chamomile [6, 9]: 80
- Plant response rating, Chamomile [6, 10]: 45
- Plant response rating, Chamomile [6, 11]: 25
- Plant response rating, Chamomile [6, 12]: 15
- Plant response rating, Chamomile [6, 13]: 90
- Plant response rating, Chamomile [6, 14]: 95

SMILES: CCOc1nn(-c2ccc(F)cc2)nc1Cc1ccnc(C(F)F)c1 [Compound 195]
- Plant response rating: Buckwheat, Wild [1, 7]: 20
- Plant response rating: Buckwheat, Wild [1, 8]: 30
- Plant response rating: Buckwheat, Wild [1, 9]: 35
- Plant response rating: Buckwheat, Wild [1, 19]: 65
- Plant response rating, Buckwheat, Wild [1, 10]: 15
- Plant response rating, Buckwheat, Wild [1, 11]: 0
- Plant response rating, Buckwheat, Wild [1, 12]: 0
- Plant response rating, Buckwheat, Wild [1, 13]: 20
- Plant response rating, Buckwheat, Wild [1, 14]: 20
- Plant response rating, Buckwheat, Wild [1, 20]: 40
- Plant response rating, Cupgrass, Woolly [2, 7]: 50
- Plant response rating, Cupgrass, Woolly [2, 8]: 65
- Plant response rating, Cupgrass, Woolly [2, 9]: 75
- Plant response rating, Cupgrass, Woolly [2, 21]: 75
- Plant response rating, Cupgrass, Woolly [2, 22]: 20
- Plant response rating, Cupgrass, Woolly [2, 16]: 95
- Plant response rating, Cupgrass, Woolly [2, 17]: 95
- Plant response rating, Cupgrass, Woolly [2, 18]: 98
- Plant response rating: Russian Thistle [3, 7]: 40
- Plant response rating: Russian Thistle [3, 8]: 80
- Plant response rating: Russian Thistle [3, 9]: 85
- Plant response rating: Russian Thistle [3, 19]: 100
- Plant response rating, Russian Thistle [3, 10]: 15
- Plant response rating, Russian Thistle [3, 11]: 0
- Plant response rating, Russian Thistle [3, 12]: 0
- Plant response rating, Russian Thistle [3, 13]: 0
- Plant response rating, Russian Thistle [3, 14]: 0
- Plant response rating, Russian Thistle [3, 20]: 30
- Plant response rating, Bermudagrass [4, 7]: 40
- Plant response rating, Bermudagrass [4, 8]: 60
- Plant response rating, Bermudagrass [4, 9]: 90
- Plant response rating, Bermudagrass [4, 21]: 95
- Plant response rating, Bermudagrass [4, 22]: 98
- Plant response rating, Bermudagrass [4, 16]: 98
- Plant response rating, Bermudagrass [4, 17]: 98
- Plant response rating, Bermudagrass [4, 18]: 98
- Plant response rating, Surinam Grass [5, 7]: 30
- Plant response rating, Surinam Grass [5, 8]: 50
- Plant response rating, Surinam Grass [5, 19]: 60
- Plant response rating, Surinam Grass [5, 22]: 55
- Plant response rating, Surinam Grass [5, 16]: 75
- Plant response rating, Surinam Grass [5, 17]: 85
- Plant response rating, Surinam Grass [5, 18]: 98
- Plant response rating: Chamomile [6, 7]: 20
- Plant response rating: Chamomile [6, 8]: 20
- Plant response rating: Chamomile [6, 9]: 20
- Plant response rating: Chamomile [6, 19]: 50
- Plant response rating, Chamomile [6, 10]: 20
- Plant response rating, Chamomile [6, 11]: 0
- Plant response rating, Chamomile [6, 12]: 0
- Plant response rating, Chamomile [6, 13]: 100
- Plant response rating, Chamomile [6, 14]: 100
- Plant response rating, Chamomile [6, 20]: 100
